Columns and labels:
human SHMT2 = human SHMT2 (Homo sapiens (Human), UniProt P34897); assay: SHMT2 in vitro enzymatic assay (coupled with MTHFD2, NADH absorption at 340 nm); format: biochemical; conditions: SHMT2 IC50 (μM), Table 2
Procedure: Inhibition of human SHMT by compounds in this disclosure is evaluated, for example, in their racemic forms in an in vitro assay.
For the SHMT1 and SHMT2 in vitro enzymatic assays, the rate of 5,10-methylene tetrahydrofolate formation catalyzed by SHMT1/2 was indirectly evaluated by coupling with excess MTHFD2, which converts NAD+ to NADH allowing for reaction monitoring by absorption at 340 nm. […] Inhibition of initial reaction velocity was determined by adding various inhibitors at different concentrations and monitored as described. IC50 may be calculated based on this assay.

HCT116 cells [1] = assay: Formate rescue assay in cell growth assay; format: cell-based, human; conditions: for rescue of effects on cell growth by addition of formate: Table 5 cells
Procedure: Application of formate is shown to rescue the anti-growth effect in certain human cells treated with SHMT inhibitors in a cell growth assay.
(§1) The described cell lines for Examples 8 and 9 are cultured in 96-well plates in Dulbecco's modified eagle media (DMEM) without pyruvate (CELLGRO) with 10% dialysed fetal bovine serum (Invitrogen) in 5% CO2 at 37° C. Approximately 2,500 cells are plated in each well in 90 uL of media. After 24 hours cells are treated with various concentrations of inhibitor (time=0 hours), with or without formate. Growth was assessed at multiple time points (time=0, 24, 48, 72 hours) through measurement of fluorescence at 595 nm (excitation at 535 nm) on a BioTek micro titer plate reader after incubation with resazurin (0.01 mg/mL for 1.5 hours). IC50 curves are generated from percent inhibition of growth at 72 hours.

HCT116 cells [2] = assay: Cell growth assay (resazurin), HCT116 wild-type; format: cell-based, human
Procedure: (§2) Inhibitors of SHMT were evaluated in various cancer cell lines, in the presence and absence of mutations in mitochondrial folate pathway enzymes.
as §1

Jurkat cells = assay: Cellular growth assay, Jurkat T-cell leukemia line; format: cell-based, human; conditions: 5 μM inhibitor + 1 mM sodium formate
Procedure: (§3) Jurkat, REH, Farage, Daudi, Su-DHL2, Su-DHL-4, Su-DHL-6 cells were purchased from ATCC. Cells were subcultured in RPMI supplemented with 10% FBS. For growth assays, cells were seeded at 2×10^5/mL in 5 mL growth media in 12.5 cm flasks. Media was supplemented with sodium formate (1 mM), additional glycine (100 mg/L) and an SHMTi (5 uM). Cells were sampled daily, and counted using trypan blue staining and light microscopy.

Su-DHL-2 cells = assay: Cellular growth assay (cell count), Su-DHL-2 DLBCL line; format: cell-based, human; conditions: Su-DHL-2, 5 μM inhibitor + 1 mM formate
Procedure: as §3

Su-DHL4 cells [3] = assay: Cellular growth assay, Su-DHL4 DLBCL line; format: cell-based, human; conditions: SU-DHL4, RPMI, FIG. 12C
Procedure: as §3

8988T cells = assay: Growth of pancreatic cancer cell line 8988T; format: cell-based, human; conditions: FIG. 9E
Su-DHL4 cells [4] = assay: Apoptosis by flow cytometry (Annexin V surface staining); format: cell-based, human
Excerpt: Apoptosis was enhanced by co-treatment with formate. In contrast, as expected, formate rescued Jurkat E6-1 leukemia cells from apoptosis (FIG. 11C). Without wishing to be bound by theory, it is hypothesized that the failure of formate to rescue growth in the DLBCL cell lines is due to a requirement for both glycine and 1C units made by SHMT in these cells. When glycine is limiting, formate can enhance the cytotoxicity of SHMT inhibition. […] Mechanistically, by supplying 5,10-methylene-THF, formate may drives residual SHMT enzymatic function in the […] direction.
In contrast, cell growth is further decreased in Su-DHL4 cells by addition of formate. This can be further exacerbated by removal of glycine from the media. […] Using flow cytometry, apoptosis of Su-DHL4 cells were studied with AnnexinV surface staining (FIGS. 12D and 12E).

[5] = tested on: SHMT2 knock-out HCT116 cells; assay: Cell growth assay, SHMT2 deletion (knock-out) HCT-116 cells; format: cell-based, human; conditions: FIG. 3B
Procedure: as §2, §1
Clonal deletion cell lines of SHMT1, SHMT2, and SHMT1/2 were generated from the human colorectal carcinoma cell line HCT-116. Paired Cas9 nickase (Cas9n) containing constructs that encoded single-guide RNA sequences targeting SHMT1 or 2 were transiently transfected into cells, and mutant colonies from single clones were picked as described in Ducker et al., (2016) Reversal of Cytosolic One-Carbon Flux Compensates for Loss of the Mitochondrial Folate Pathway, Cell Metab 23, 1140-1153. […]

Chain of human SHMT2 (P34897 30-504): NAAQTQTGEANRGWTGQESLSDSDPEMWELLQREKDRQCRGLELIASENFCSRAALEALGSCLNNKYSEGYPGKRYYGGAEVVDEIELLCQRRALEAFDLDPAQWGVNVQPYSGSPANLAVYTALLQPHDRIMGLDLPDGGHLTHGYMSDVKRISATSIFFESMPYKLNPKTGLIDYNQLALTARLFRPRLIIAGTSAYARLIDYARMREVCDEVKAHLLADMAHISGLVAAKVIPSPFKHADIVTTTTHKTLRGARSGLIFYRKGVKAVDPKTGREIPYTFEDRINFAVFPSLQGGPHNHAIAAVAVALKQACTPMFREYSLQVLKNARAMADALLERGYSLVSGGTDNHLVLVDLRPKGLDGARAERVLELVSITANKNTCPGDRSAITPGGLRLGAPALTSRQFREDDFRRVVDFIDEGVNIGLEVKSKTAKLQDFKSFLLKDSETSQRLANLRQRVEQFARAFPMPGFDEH

## Cc1n[nH]c2c1C(c1cc(C#CCCC(=O)O)cc(C(F)(F)F)c1)(C(C)C)C(C#N)=C(N)O2 (racemic) [1 (enantiomeric mixture)]
Human SHMT2
  IC50: 0.00065 µM

## Cc1n[nH]c2c1C(c1cc(C#CCCC(=O)O)cc(C(F)(F)F)c1)(C(C)C)C(C#N)=C(N)O2 (stereo not drawn) [1 (enatiomerically active peak)]
HCT116 cells [1]; HCT cells, Table 2
  % formate rescue: 94.96%
Human SHMT2
  IC50: 0.00079 µM
HCT116 cells [2]; Table 2, read-out: HCT Cell IC50
  IC50: 1360 nM

## Cc1n[nH]c2c1[C@@](c1cc(C(F)(F)F)cc(C(F)(F)F)c1)(C(C)C)C(C#N)=C(N)O2 [HK-16 (PK-2)]
Jurkat cells
  rescue of growth inhibition by formate: significantly rescued
Su-DHL-2 cells
  rescue of growth inhibition by formate: not rescued

## Cc1n[nH]c2c1C(c1cc(N3CCCC3)cc(C(F)(F)F)c1)(C(C)C)C(C#N)=C(N)O2 (stereo not drawn) [HK-X1]
HCT116 cells [1]
  rescue of effects on cell growth by addition of formate: rescued

## Cc1n[nH]c2c1C(c1cc(CO)cc(-c3ccccc3)c1)(C(C)C)C(C#N)=C(N)O2 (stereo not drawn) [HK-X2]
HCT116 cells [1]
  rescue of effects on cell growth by addition of formate: rescued
Su-DHL4 cells [3]
  IC70: 5000 nM
8988T cells
  concentration impairing cell growth: < 100 nM
Su-DHL4 cells [4]; Su-DHL4, inhibitor alone (control 2%)
  apoptotic fraction of cells: 8%
Su-DHL4 cells [4]; Su-DHL4, inhibitor in the presence of formate
  apoptotic fraction of cells: 15%
Su-DHL4 cells [4]; Su-DHL-4
  apoptosis by Annexin V surface staining: induced apoptosis

## Cc1n[nH]c2c1C(c1cc(C#CCCCO)cc(C(F)(F)F)c1)(C(C)C)C(C#N)=C(N)O2 (stereo not drawn) [Compound 61, 6-amino-4-(3-(5-hydroxypent-1-yn-1-yl)-5-(trifluoromethyl)phenyl)-4-isopropyl-3-methyl-1,4-dihydropyrano[2,3-c]pyrazole-5-carbonitrile]
HCT116 cells [2]; native HCT116, FIG. 3A
  growth (proliferation) of HCT116 cells: inhibited growth
[5]
  growth of SHMT2 knock-out HCT116 cells versus native: increased potency
